We go through four compounds from patent publication US20040176316A1, “Compounds for the normalization of the sleep/wake cycle” (priority 2002, published 2004).

“Also recorded” adds a separate entry of the source. Read-outs that look alike come from different tables or passages of the source.

The conditions of data set [1]: cited from earlier work.
For data set [2], the system named is cocaine user. Put plainly: Level of activity as a function of time of day in a cocaine user without and with CDP-choline treatment (FIGS. 2A and 2B). Type of data set: in vivo. The source says: FIGS. 2A and 2B are graphs of level of activity as a function of time of day without (A) and with (B) citicoline treatment. A, B, and C refer to use of alcohol, caffeine, and cocaine, respectively. The numbers indicate a craving for cocaine, based on a 10 point scale. Gray dots indicate ingestion of citicoline.
CDP-choline and related compounds are also useful in the treatment of substance abuse disorders, such as alcohol, cocaine, opiate, opioid, nicotine, or tobacco usage or dependence (U.S. Pat. Nos. 5,958,896 and 6,103,703 and U.S. Provisional Application No. 60/424,972, filed Nov. 8, 2002). Since substance abuse disorders may cause a disruption in the quality of sleep or the sleep/wake cycle, the methods of the invention may be used to normalize the sleep/wake cycle or treat sleep disorders in patients with a substance abuse disorder. In addition, a substance abuse disorder and an abnormal sleep/wake cycle or sleep disorder may be treated simultaneously with the methods described herein. FIGS. 2A and 2B show data on the level of activity of a cocaine user for five days without treatment (FIG. 2A) and for 5 days after treatment with CDP-choline (FIG. 2B, monitoring began 4 days after treatment). […] In addition, the subject's use of cocaine (denoted by C) was eliminated with treatment, and the use of alcohol (denoted by A) was reduced.

Data set [3] concerns human subjects. Put plainly: Effects of citicoline on sleep quality and mood, rated by subjects on a 10 point scale (FIG. 1). Format: in vivo. The source says: FIG. 1 is a graph of the effects of citicoline on sleep quality and mood. […] The quality of sleep is improved, and the sleep/wake cycle is normalized after 2-4 weeks of citicoline treatment. This normalization of the sleep/wake cycle may further promote increased wakefulness or reduce fatigue or tiredness during the day. The administration of citicoline will also likely stabilize the homeostatic processes involved in sleep disorders such as insomnia, sleep apneas (central or obstructive), problem sleepiness, restless leg syndrome, periodic limb movements, and narcolepsy. In addition, citicoline may increase cognitive functioning (Alvarez et al. Methods Find Exp Clin Pharmacol 21:633-44, 1999; Fioravanti et al. Cochrane Database Syst. Rev. 4: CD000269, 2000) and may be used to increase cognitive performance in individuals in a sleep-deprived state, e.g., pilots, physicians, students, or others who may experience long periods without sleep.

For data set [4] the following is noted: cited from earlier work. This is another data set of the same source.
The conditions of data set [5]: cited from earlier work. This is another data set of the same source.
The mark [6] stands for this setting: after 2-4 weeks of citicoline treatment.
The mark [7] stands for this setting: human subjects, measured by the subjects on a 10 point scale, compared to placebo (FIG. 1).

Turning to `CN(CC(=O)O)C(=N)N` [Creatine, creatine], in data set [1] (humans), the tolerability entry is given as “well tolerated at relatively high doses”.
For `C[N+](C)(C)CCOP(=O)(O)OP(=O)([O-])OC[C@H]1O[C@@H](n2ccc(N)nc2=O)[C@H](O)[C@@H]1O` [CDP-choline, cytidine 5′-diphosphocholine], the sleep/wake cycle entry in data set [2] (5 days of monitoring that began 4 days after treatment, vs five days without treatment) is listed as “normalized to a diurnal pattern”. Also, the “cravings for cocaine (10 point scale)” value in data set [2] (after treatment) is given as “reduced in intensity”. Also, in data set [2] (after treatment vs without treatment), the “level of activity during the day” value is listed as “more active during the day”. In data set [2] (with treatment), the use of alcohol entry is on record as “reduced” and the use of cocaine result is given as “eliminated”. Also, in data set [3] (setting [6]), the quality of sleep result is “improved” and the sleep/wake cycle result is on record as “normalized”. For the same compound, in data set [3] (setting [7]), the mood entry is reported as “increases” and the quality of sleep result is recorded as “increases”. For the same compound, in data set [4] (administered either orally or intravenously), the “metabolic conversion after administration” value is “rapidly metabolized to cytidine and choline; also recorded: rapidly converted into the two major circulating metabolites, choline and cytidine”. In data set [4] (orally administered), the “CDP-choline and/or its metabolites absorbed” value is reported as “more than 99%” and the excreted in feces result is “less than 1%”. For the same compound, in data set [4] (share of dose), the excretion via lung is given as 12.9%; the excretion via urine is recorded as 2.4%; the “rest of the dose metabolized and retained in tissues” value is 83.9%. For the same compound, in data set [1] (mammals), the tolerability entry was “well tolerated”. The toxicity symptoms entry in data set [5] (ingestion of large amounts in preclinical studies) is “common cholinergic symptoms (salivation, lacrimation, urination, defecation, and vomiting)”. In addition, the overdoses entry in data set [5] (reported cases) was “no reported cases of overdoses”.
As for `O=c1ccn([C@@H]2O[C@H](CO)[C@@H](O)[C@H]2O)c(=O)[nH]1` [uridine], the tolerability result in data set [1] (humans) and in data set [1] (mammals) was “well tolerated” in each case.
In the case of `CC(=O)OC[C@H]1O[C@@H](n2ccc(=O)[nH]c2=O)[C@H](OC(C)=O)[C@@H]1OC(C)=O` [triacetyl uridine], in data set [1] (in vivo), the tolerability entry was “well tolerated”.
